Results published in PMC7844276, “Multi-functionality of a tryptophan residue conserved in substrate-binding groove of GH19 chitinases” (Scientific Reports, 2021).

Legend:
Format in all cases: binding
[1] = molecular target: T1, BcChi-A (Gemmabryum coronatum, UniProt A9ZSX9); assay: 1H-15N HSQC NMR titration, Asn20 chemical shift; settings: 50 mM sodium acetate pH 5.0, 90% H2O/10% D2O, 300 K; 0.2 mM 15N protein
T1 construct: gene bcchiA; recombinant, pET-22b in E. coli BL21(DE3); purified from cell lysate by acid treatment, Q-Sepharose, Sephacryl S-100; no tag mentioned; 15N-labelled for NMR; catalytic domain, loopless GH19
Text: (§1) 1H-15N HSQC NMR titration, Asn20 chemical shift on BcChi-A

[2] = molecular target: T2, BcChi-A (Gemmabryum coronatum, UniProt A9ZSX9, W126A); assay: 1H-15N HSQC NMR titration, Asn20 chemical shift; settings: 50 mM sodium acetate pH 5.0, 90% H2O/10% D2O, 300 K; 0.2 mM 15N protein
T2 construct: gene bcchiA; recombinant, pET-22b in E. coli BL21(DE3); purified from cell lysate by acid treatment, Q-Sepharose, Sephacryl S-100; no tag mentioned; 15N-labelled for NMR; catalytic domain, loopless GH19
Text: as §1

[3] = molecular target: T3, BcChi-A (Gemmabryum coronatum, UniProt A9ZSX9, W126F); assay: 1H-15N HSQC NMR titration, Asn20 chemical shift; settings: 50 mM sodium acetate pH 5.0, 90% H2O/10% D2O, 300 K; 0.2 mM 15N protein
T3 construct: gene bcchiA; recombinant, pET-22b in E. coli BL21(DE3); purified from cell lysate by acid treatment, Q-Sepharose, Sephacryl S-100; no tag mentioned; 15N-labelled for NMR; catalytic domain, loopless GH19
Text: as §1

[4] = molecular target: T4, BcChi-A (Gemmabryum coronatum, UniProt A9ZSX9, E84Q); assay: 1H-15N HSQC NMR titration, Asn20 bound-state intensity (slow exchange); settings: 50 mM sodium acetate pH 5.0, 90% H2O/10% D2O, 300 K; 0.2 mM 15N protein; catalytically inactive mutant
T4 construct: gene bcchiA; recombinant, pET-22b in E. coli BL21(DE3); purified from cell lysate by acid treatment, Q-Sepharose, Sephacryl S-100; no tag mentioned; 15N-labelled for NMR; catalytic domain, loopless GH19
Text: (§2) 1H-15N HSQC NMR titration, Asn20 bound-state intensity (slow exchange) on BcChi-A

[5] = molecular target: T5, BcChi-A (Gemmabryum coronatum, UniProt A9ZSX9, E84Q/W126A); assay: as above; settings: 50 mM sodium acetate pH 5.0, 90% H2O/10% D2O, 300 K; 0.2 mM 15N protein; catalytically inactive mutant
T5 construct: gene bcchiA; recombinant, pET-22b in E. coli BL21(DE3); purified from cell lysate by acid treatment, Q-Sepharose, Sephacryl S-100; no tag mentioned; 15N-labelled for NMR; catalytic domain, loopless GH19
Text: as §2

[6] = molecular target: T6, BcChi-A (Gemmabryum coronatum, UniProt A9ZSX9, E84Q/W126F); assay: as above; settings: 50 mM sodium acetate pH 5.0, 90% H2O/10% D2O, 300 K; 0.2 mM 15N protein; catalytically inactive mutant
T6 construct: gene bcchiA; recombinant, pET-22b in E. coli BL21(DE3); purified from cell lysate by acid treatment, Q-Sepharose, Sephacryl S-100; no tag mentioned; 15N-labelled for NMR; catalytic domain, loopless GH19
Text: as §2

T1 sequence (A9ZSX9 entry or part of it): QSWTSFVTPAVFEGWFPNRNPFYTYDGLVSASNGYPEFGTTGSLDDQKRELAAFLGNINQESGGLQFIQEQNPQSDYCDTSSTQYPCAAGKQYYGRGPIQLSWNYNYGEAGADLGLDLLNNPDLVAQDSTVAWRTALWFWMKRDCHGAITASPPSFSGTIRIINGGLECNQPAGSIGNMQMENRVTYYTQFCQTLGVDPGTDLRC
T5 sequence (A9ZSX9 entry or part of it E84Q/W126A): as the sequence (A9ZSX9 entry or part of it) above, with E61Q, W103A counted along it
T6 sequence (A9ZSX9 entry or part of it E84Q/W126F): as the sequence (A9ZSX9 entry or part of it) above, with E61Q, W103F counted along it
T2 sequence (A9ZSX9 entry or part of it W126A): as the sequence (A9ZSX9 entry or part of it) above, with W103A counted along it
T4 sequence (A9ZSX9 entry or part of it E84Q): as the sequence (A9ZSX9 entry or part of it) above, with E61Q counted along it
T3 sequence (A9ZSX9 entry or part of it W126F): as the sequence (A9ZSX9 entry or part of it) above, with W103F counted along it

Row | SMILES | Kd [1] [µM] | Kd [2] [µM] | Kd [3] [µM] | Kd [4] [µM] | Kd [5] [µM] | Kd [6] [µM]
1 | CC(=O)N[C@H]1[C@H](O[C@H]2[C@H](O)[C@@H](NC(C)=O)C(O)O[C@@H]2CO)O[C@H](CO)[C@@H](O)[C@@H]1O (stereo partly drawn) [(GlcNAc)2] | 4200 | 24000 | 22000 | – | – | –
2 | CC(=O)N[C@H]1[C@H](O[C@H]2[C@H](O)[C@@H](NC(C)=O)[C@H](O[C@H]3[C@H](O)[C@@H](NC(C)=O)C(O)O[C@@H]3CO)O[C@@H]2CO)O[C@H](CO)[C@@H](O[C@@H]2O[C@H](CO)[C@@H](O[C@@H]3O[C@H](CO)[C@@H](O[C@@H]4O[C@H](CO)[C@@H](O)[C@H](O)[C@H]4NC(C)=O)[C@H](O)[C@H]3NC(C)=O)[C@H](O)[C@H]2NC(C)=O)[C@@H]1O (stereo partly drawn) [(GlcNAc)6] | – | – | – | 14 | 200 | 1000
